Earlier results as cited in PMC4959786 (Clinical immunology (Orlando, Fla.), 2015).

Target: I-A^q (Mus musculus, UniProt P04227+P06342)
Settings: result in words, earlier work

I-A^q, sequence (P04227 whole entry, looked up): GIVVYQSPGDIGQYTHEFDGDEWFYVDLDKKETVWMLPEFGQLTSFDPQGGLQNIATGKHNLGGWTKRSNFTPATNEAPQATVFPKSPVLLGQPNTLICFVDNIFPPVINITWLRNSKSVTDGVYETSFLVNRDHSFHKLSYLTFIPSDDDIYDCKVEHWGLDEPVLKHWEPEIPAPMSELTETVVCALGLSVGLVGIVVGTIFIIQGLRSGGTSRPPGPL
I-A^q, sequence (P06342 whole entry, looked up): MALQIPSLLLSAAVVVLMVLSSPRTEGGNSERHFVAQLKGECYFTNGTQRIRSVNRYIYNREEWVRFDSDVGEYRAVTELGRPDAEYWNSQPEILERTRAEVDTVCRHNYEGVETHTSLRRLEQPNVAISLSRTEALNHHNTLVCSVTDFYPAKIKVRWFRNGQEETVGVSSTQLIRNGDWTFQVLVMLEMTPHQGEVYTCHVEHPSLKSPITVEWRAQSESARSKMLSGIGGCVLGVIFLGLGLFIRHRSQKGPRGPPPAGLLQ

binding to I-A^q (ref [5], [6]): binds very weakly | binding affinity for I-A^q (ref [6]): very weak binding affinity
Sequence: GEBGABGNKGEQGPKGEBGP [A9]
